For 66 molecules, IC50 results are on record in patent US8058427B2, “Coumarin compounds and their use for treating cancer” (National Health Research Institutes, priority 2008, dated 2011).

Each structure is given as a SMILES string.

This experiment deals with Human cervical carcinoma KB cells. Nature of the experiment: Growth inhibition assay, KB cells (MTS). The experiment is classed as cell-based. The note with it: 72 h, read-out: IC50 (concentration causing 50% cell growth inhibition). Here is the method: Anticancer activities of the compounds of this invention were evaluated using a growth inhibition assay described in Kuo et al., Cancer Res. 2004, 64(13), 4621-4628.
Human cervical carcinoma KB cells were maintained in plastic dishes in DMEM medium supplemented with 10% fetal bovine serum. For in vitro treatment, tumor cells were seeded in […] of culture medium/well in 96-well plates to a final cell density of 6×10^3 cell/mL and incubated in a CO2 incubator at 37° C. for 24 h. The cells were treated with at least five different concentrations of a test compound, and incubated in a CO2 incubator at 37° C. for 72 h. The number of viable cells was estimated using MTS assay and absorbance was measured at 490 nm. For each test compound, dose-response curves were measured with at least five different drug concentrations, and the concentration causing 50% cell growth inhibition (IC50) compared with the control was calculated.
Turning to `Cc1cc(=O)oc2c1ccc1oc(C(=O)c3ccc(F)c(F)c3)c(-c3ccccc3)c12` [Compound 60], the IC50 lay in the range of 101 to 999 nM.

As for `Cc1cc(=O)oc2c1ccc1oc(/C(=N/NC(N)=O)c3ccccc3)c(-c3ccccc3)c12` [Compound 174], the IC50 is 1000 to 10000 nM.

Turning to `Cc1cc(=O)oc2c1ccc1oc(C(=O)c3ccc(Cl)cc3)c(-c3ccc(Br)cc3)c12` [Compound 210], the IC50 is 1000 to 10000 nM.

For `Cc1cc(=O)oc2c1ccc1oc(C(=O)c3cccc(OCCO)c3)c(-c3ccccc3)c12` [Compound 184], the IC50 is 101 to 999 nM.

As for `Cc1cc(=O)oc2c1ccc1oc(C(=O)c3ccccc3)c(-c3ccc(Cl)c(Cl)c3)c12` [Compound 224], the IC50 lay within 101 to 999 nM.

Take `Cc1cc(=O)oc2c1ccc1oc(C(=O)c3cc(F)ccc3F)c(-c3ccc(F)cc3)c12` [Compound 221]: the IC50 fell in the range of 101 to 999 nM.

As to `COc1ccccc1C(=O)c1oc2ccc3c(C)cc(=O)oc3c2c1-c1ccc(Br)cc1` [Compound 219], the IC50 lay within 101 to 999 nM.

Regarding `Cc1cc(=O)oc2c1ccc1oc(C(=O)c3ccccc3)c(-c3ccccc3Cl)c12` [Compound 135], the IC50 is 101 to 999 nM.

Regarding `Cc1cc(=O)oc2c1ccc1oc(C(=O)c3cccc(OCCOCCOCCO)c3)c(-c3ccccc3)c12` [Compound 177], the IC50 was in the range of 101 to 999 nM.

For `Cc1ccc(C(=O)c2oc3ccc4c(C)cc(=O)oc4c3c2-c2ccccc2)c(C)c1` [Compound 62], the IC50 was in the range of 101 to 999 nM.

In the case of `Cc1cc(=O)oc2c1ccc1oc(C(=O)c3ccc(Br)cc3)c(-c3ccccc3)c12` [Compound 50], the IC50 was in the range of 101 to 999 nM.

On to `Cc1cc(=O)oc2c1ccc1oc(C(=O)c3ccccc3)c(-c3ccccc3Br)c12` [Compound 138], for which the IC50 was 101 to 999 nM.

As for `Cc1cc(=O)oc2c1ccc1oc(C(=O)c3cccc(OCCN4CCN(C)CC4)c3)c(-c3ccccc3)c12` [Compound 89], the IC50 was in the range of 101 to 999 nM.

On to `Cc1cc(=O)oc2c1ccc1oc(C(=O)c3cccc(C#N)c3)c(-c3ccccc3)c12` [Compound 42], for which the IC50 is 101 to 999 nM.

`O=C(c1ccccc1)c1oc2ccc3c(C(F)(F)F)cc(=O)oc3c2c1-c1ccccc1` [Compound 11]: the IC50 was in the range of 101 to 999 nM.

On to `Cc1cc(=O)oc2c1ccc1oc(C(=O)c3cccs3)c(-c3ccc(Br)cc3)c12` [Compound 254], for which the IC50 lay in the range of 101 to 999 nM.

Turning to `Cc1cc(=O)oc2c1ccc1oc(C(=O)c3ccc(Cl)cc3)c(-c3ccccc3)c12` [Compound 49], the IC50 lay within 101 to 999 nM.

For `Cc1cc(=O)oc2c1ccc1oc(/C(=N/OCc3ccccc3)c3ccccc3)c(-c3ccccc3)c12` [Compound 175], the IC50 was 101 to 999 nM.

For `O=Cc1cc(=O)oc2c1ccc1oc(C(=O)c3ccccc3)c(-c3ccccc3)c12` [Compound 10], the IC50 is 101 to 999 nM.

As to `Cc1cc(=O)oc2c1ccc1oc(C(=O)C3CCCCC3)c(-c3ccccc3)c12` [Compound 127], the IC50 was in the range of 1000 to 10000 nM.

`Cc1cc(=O)oc2c1ccc1oc(C(=O)c3ccc(C(F)(F)F)cc3)c(-c3ccccc3)c12` [Compound 37]: the IC50 was in the range of 1000 to 10000 nM.

On to `Cc1cc(=O)oc2c1ccc1oc(C(=O)c3ccc(Cl)c(Cl)c3)c(-c3ccccc3)c12` [Compound 58], for which the IC50 lay in the range of 101 to 999 nM.

`Cc1cc(=O)oc2c1ccc1oc(C(=O)c3ccc(Br)s3)c(-c3ccccc3)c12` [Compound 98]: the IC50 was 101 to 999 nM.

`CC(=O)OCC1C(OCCOc2cccc(C(=O)c3oc4ccc5c(C)cc(=O)oc5c4c3-c3ccccc3)c2)OC(OC(C)=O)C(OC(C)=O)C1OC(C)=O` (stereo not drawn) [Compound 194]: the IC50 was in the range of 101 to 999 nM.

Turning to `Cc1cc(=O)oc2c1ccc1oc(C(=O)c3ccccc3)c(-c3cccc(Cl)c3)c12` [Compound 136], the IC50 lay within 101 to 999 nM.

As for `Cc1cc(=O)oc2c1ccc1oc(C(=O)c3cccc(OCCCO[Si](C)(C)C(C)(C)C)c3)c(-c3ccccc3)c12` [Compound 190], the IC50 lay within 101 to 999 nM.

As for `Cc1cc(=O)oc2c1ccc1oc(C(=O)c3ccco3)c(-c3ccccc3)c12` [Compound 92], the IC50 fell in the range of 101 to 999 nM.

Consider `Cc1cc(=O)oc2c1ccc1oc(C(=O)c3ccc(Br)cc3)c(-c3ccc(Br)cc3)c12` [Compound 211], for which the IC50 was in the range of 1000 to 10000 nM.

Take `Cc1cc(=O)oc2c1ccc1oc(C(=O)c3cccc(C(F)(F)F)c3)c(-c3ccccc3)c12` [Compound 36]: the IC50 lay in the range of 101 to 999 nM.

Turning to `Cc1cc(=O)oc2c1ccc1oc(C(=O)c3ccccc3)cc12` [Compound 153], the IC50 was in the range of 101 to 999 nM.

For `CC(=O)c1oc2ccc3c(C)cc(=O)oc3c2c1-c1ccccc1` [Compound 119], the IC50 was in the range of 1000 to 10000 nM.

`Cc1cc(=O)oc2c1ccc1oc(C(=O)c3cccc(OCCCCN(C)C)c3)c(-c3ccccc3)c12` [Compound 88]: the IC50 is 101 to 999 nM.

With `Cc1cc(=O)oc2c1ccc1oc(C(=O)c3ccc(OC(F)(F)F)cc3)c(-c3ccccc3)c12` [Compound 38], the IC50 was 101 to 999 nM.

As to `Cc1cc(=O)oc2c1ccc1oc(C(=O)c3cccc(Cl)c3)c(-c3ccc(Br)cc3)c12` [Compound 217], the IC50 fell in the range of 101 to 999 nM.

As for `Cc1cc(=O)oc2c1ccc1oc(C(=O)c3ccc(-c4ccccc4)cc3)c(-c3ccccc3)c12` [Compound 52], the IC50 lay within 1000 to 10000 nM.

On to `Cc1ccc(C(=O)c2oc3ccc4c(C)cc(=O)oc4c3c2-c2ccccc2)o1` [Compound 94], for which the IC50 lay in the range of 101 to 999 nM.

With `Cc1cc(=O)oc2c1ccc1oc(C(=O)c3ccc([N+](=O)[O-])cc3)c(-c3ccccc3)c12` [Compound 51], the IC50 was in the range of 101 to 999 nM.

`Cc1cc(=O)oc2c1ccc1oc(C(=O)c3cccc(OCCCCN4CCN(C)CC4)c3)c(-c3ccccc3)c12` [Compound 91]: the IC50 lay in the range of 1000 to 10000 nM.

Regarding `Cc1cc(=O)oc2c1ccc1oc(C(=O)c3ccccc3)c(-c3ccco3)c12` [Compound 159], the IC50 is 101 to 999 nM.

For the molecule `Cc1cc2ccc3oc(C(=O)c4ccccc4)c(-c4ccccc4)c3c2oc1=O` [Compound 3], the IC50 lay within 101 to 999 nM.

As to `Cc1cc(=O)oc2c1ccc1oc(C(=O)c3cc(Cl)sc3Cl)c(-c3ccccc3)c12` [Compound 97], the IC50 lay within 1000 to 10000 nM.

Consider `CCOC(=O)c1cc(C(=O)c2oc3ccc4c(C)cc(=O)oc4c3c2-c2ccccc2)on1` [Compound 110], for which the IC50 was in the range of 1000 to 10000 nM.

With `Cc1cc(=O)oc2c1ccc1oc(C(=O)c3ccccc3)c(C)c12` [Compound 154], the IC50 fell in the range of 101 to 999 nM.

As for `Cc1cc(=O)oc2c1ccc1oc(C(=O)c3cc(F)ccc3F)c(-c3ccccc3)c12` [Compound 61], the IC50 was in the range of 101 to 999 nM.

Regarding `Cc1cc(=O)oc2c1ccc1oc(C(=O)c3ccc(N(C)C)cc3)c(-c3ccccc3)c12` [Compound 264], the IC50 was in the range of 101 to 999 nM.

On to `Cc1cc(=O)oc2c1ccc1oc(C(=O)c3cccc(OCCCCCCO[Si](C)(C)C(C)(C)C)c3)c(-c3ccccc3)c12` [Compound 193], for which the IC50 was 101 to 999 nM.

Take `Cc1cc(=O)oc2c1ccc1oc(C(=O)c3cccc(OCCCCN4CCCCC4)c3)c(-c3ccccc3)c12` [Compound 85]: the IC50 lay within 101 to 999 nM.

For the molecule `Cc1cc(=O)oc2c1ccc1oc(C(=O)c3ccccc3)c(-c3cccc4ccccc34)c12` [Compound 206], the IC50 fell in the range of 101 to 999 nM.

Consider `COc1ccc(C(=O)c2oc3ccc4c(C)cc(=O)oc4c3c2-c2ccc(Br)cc2)cc1` [Compound 214], for which the IC50 lay within 1000 to 10000 nM.

`Cc1cc(=O)oc2c1ccc1oc(C(=O)c3cccc(OCCCOC4OC(CO)C(O)C(O)C4O)c3)c(-c3ccccc3)c12` (stereo not drawn) [Compound 197]: the IC50 lay in the range of 101 to 999 nM.

As to `Cc1cc(=O)oc2c1ccc1oc(C(=O)c3ccccc3)c(-c3ccc(Cl)cc3)c12` [Compound 137], the IC50 is 101 to 999 nM.

As for `Cc1cc(=O)oc2c1ccc1oc(C(=O)c3ccc4ccccc4c3)c(-c3ccc(F)cc3)c12` [Compound 220], the IC50 is 101 to 999 nM.

Turning to `Cc1cc(=O)oc2c1ccc1oc(Cc3ccccc3)c(-c3ccccc3)c12` [Compound 173], the IC50 was 101 to 999 nM.

As for `Cc1cc(=O)oc2c1ccc1oc(C(=O)c3cccn3C)c(-c3ccccc3)c12` [Compound 102], the IC50 is 1000 to 10000 nM.

For the molecule `CCCCCCCCCCc1c(C(=O)c2ccccc2)oc2ccc3c(C)cc(=O)oc3c12` [Compound 158], the IC50 was 1000 to 10000 nM.

`O=C(c1ccccc1)c1oc2ccc3ccc(=O)oc3c2c1-c1ccccc1` [Compound 2]: the IC50 was 101 to 999 nM.

For the molecule `CCCCCCc1c(C(=O)c2ccccc2)oc2ccc3c(C)cc(=O)oc3c12` [Compound 157], the IC50 lay within 101 to 999 nM.

Regarding `Cc1cc(=O)oc2c1ccc1oc(C(=O)c3ccccc3O)c(-c3ccccc3)c12` [Compound 204], the IC50 lay within 101 to 999 nM.

On to `Cc1cc(=O)oc2c1ccc1oc(C(=O)c3cccc(OCCN[C@@]45C[C@@H]6C[C@@H](C[C@@](O)(C6)C4)C5)c3)c(-c3ccccc3)c12` [Compound 183], for which the IC50 was 101 to 999 nM.

As for `CCCOc1cccc(C(=O)c2oc3ccc4c(C)cc(=O)oc4c3c2-c2ccc(Br)cc2)c1` [Compound 253], the IC50 is 101 to 999 nM.

On to `Cc1cc(=O)oc2c1ccc1oc(C(=O)c3ccc(F)cc3)c(-c3ccc(Br)cc3)c12` [Compound 209], for which the IC50 was in the range of 101 to 999 nM.

As to `CCCCCc1c(C(=O)c2ccccc2)oc2ccc3c(C)cc(=O)oc3c12` [Compound 156], the IC50 lay within 1000 to 10000 nM.

With `O=C(c1ccccc1)c1oc2ccc3c4c(c(=O)oc3c2c1-c1ccccc1)CCCC4` [Compound 21], the IC50 fell in the range of 1000 to 10000 nM.

For the molecule `CO/N=C(\c1ccccc1)c1oc2ccc3c(C)cc(=O)oc3c2c1-c1ccccc1` [Compound 176], the IC50 is 1000 to 10000 nM.

Turning to `Cc1cc(=O)oc2c1ccc1sc(C(=O)c3ccccc3)c(-c3ccccc3)c12` [Compound 26], the IC50 lay within 101 to 999 nM.

Take `Cc1cc(=O)oc2c1ccc1oc(C(=O)c3ccccc3C(F)(F)F)c(-c3ccccc3)c12` [Compound 35]: the IC50 lay within 1000 to 10000 nM.
